# How the values were obtained:
# sematostatin in DG hilus = assay: somatostatin in DG hilus after four weeks of osmotic minipump treatment (Example 5); format: in vivo, rat; conditions: levetiracetam 10 mg/kg/day in osmotic minipumps for four weeks, aged-impaired rats
# [1] = cited from earlier work
# [2] = tested on: DG/CA3 regions of aMCI subjects; assay: fMRI activity in DG/CA3 during lure stimuli correctly identified as similar; format: in vivo, human
# aMCI subjects = assay: explicit 3-alternative forced choice task (lure images); format: in vivo, human
# Source text: See Folstein et al., J Psychiatric Res 12: 189-98, (1975); Robbins et al., Dementia 5: 266-81, (1994); Rey, L'examen clinique en psychologie, (1964); Kluger et al., J Geriatr Psychiatry Neurol 12:168-79, (1999); Marquis et al., 2002 and Masur et al., 1994, or MATRICS consensus neuropsychological test battery which includes tests of working memory, speed of processing, attention, verbal learning, visual learning, reasoning and problem solving and social cognition. Another example of a cognitive test in humans is the explicit 3-alternative forced choice task. In this test, subjects are presented with color photographs of common objects consisting of a mix of three types of image pairs: similar pairs, identical pairs and unrelated foils. The second of the pair of similar objects is referred to as the “lure”. These image pairs are fully randomized and present individually as a series of images. Subjects are instructed to make a judgment as to whether the objects seen are new, old or similar. A “similar” response to the presentation of a lure stimulus indicates successful memory retrieval by the subject.
# The activity of the subject's medial temporal lobe is measured by functional MRI during the subject's participation in an explicit 3-alternative forced choice task, where participants view novel, repeated and similar (“lure”) stimuli. The Psychophysics Toolbox extensions in Matlab 7.0 (The MathWorks, Natick, Mass.) is used for stimulus presentation and behavioral data collection. Stimuli are color photographs of common objects. Each participant undergoes a series of testing runs during the functional imaging sessions, each run consisting of a mix of three types of image pairs: similar pairs, identical pairs and unrelated foils. These image pairs are fully randomized throughout the run and present individually as a series of images (see FIG. 6A). […]
# The activity of the subject's medial temporal lobe is measured by functional MRI during the subject's participation in an explicit 3-alternative forced choice task, where participants view novel, repeated and similar (“lure”) stimuli. […]
smiles,measurement,setting,value
"CC[C@@H](C(N)=O)N1CCCC1=O [levetiracetam, (2S)-2-(2-oxopyrrolidin-1-yl) butanamide]",somatostatin in DG hilus,sematostatin in DG hilus,restores sematostatin in DG hilus
same,plasma half-life expected in elderly,"[1]; elderly, decreased renal function",9 to 10 h
same,absorption,"[1]; in vivo, po",rapidly and almost completely absorbed
same,time of peak plasma concentrations,"[1]; in vivo, po",about 1 hour
same,plasma half-life,[1]; in vivo,approximately 7±1 hour
same,time to steady state,[1]; in vivo,2 days
same,effect of food on bioavailability,[1]; oral,not affected by food
same,DG/CA3 hyperactivity during successful memory judgments,"[2]; levetiracetam 62.5 mg BID for two weeks, cohort N=20",does not significantly reduce the DG/CA3 hyperactivity
same,DG/CA3 activity during successful memory judgments,"[2]; levetiracetam 125 mg twice a day for two weeks vs placebo, same aMCI subjects, p=0.037",reduces DG/CA3 hyper-activity
same,DG/CA3 hyperactivity during successful memory judgments,"[2]; levetiracetam 250 mg BID for two weeks, cohort N=17",does not significantly reduce the DG/CA3 hyperactivity
same,performance of aMCI subjects in the memory task (similar vs old responses to lures),"aMCI subjects; levetiracetam 62.5 mg BID for two weeks vs placebo, p=0.041",improves significantly
same,performance of aMCI subjects in the memory task (similar vs old responses to lures),"aMCI subjects; levetiracetam 125 mg twice a day for two weeks vs placebo, p=0.039",improves significantly
same,performance of aMCI subjects in the memory task (similar vs old responses to lures),"aMCI subjects; levetiracetam 250 mg BID for two weeks vs placebo, p=0.2396",does not significantly improve
